Measured values from patent US12522564B2, “Polymorphs of elafibranor” (GENFIT, priority 2021, dated 2026).

Columns and labels:
[1] = tested on: animal disease models; details: cited from earlier work
[2] = up to 2-year carcinogenicity studies; cited from earlier work
[3] = Saturation concentration of elafibranor in the crystallization solvent; type: physicochemical; details: room temperature
[4] = tested on: patients and healthy volunteers; details: over 800 patients and healthy volunteers; cited from earlier work

In the case of `CSc1ccc(C(=O)/C=C/c2cc(C)c(OC(C)(C)C(=O)O)c(C)c2)cc1` [Elafibranor, 2-(2,6-dimethyl-4-{3-[4-(methylsulfanyl)phenyl]-3-oxopropen-1-yl}phenoxy)-2-methylpropanoic acid], the “histological NASH parameters (steatosis, inflammation, fibrosis)” value [1] is listed as “efficacy”, the “safety in full toxicological package” value [2] is listed as “absence of safety concern” and the “saturation concentration of elafibranor in the solvent” value (from here on “saturation concentration”) ([3]; N,N-dimethylacetamide) is listed as 11.9 mg/mL. For the same compound, the “saturation concentration” value ([3]; ethanol) was 28.7 mg/mL, the “saturation concentration” value ([3]; methanol) was 17.7 mg/mL and the HDL-C levels [4] was “increase”. For the same compound, the “insulin sensitivity and glucose homeostasis” value [4] was “improvement”, the “markers of liver dysfunction, including ALAT, ASAT, γGT, ALP” value [4] was “improvement” and the “plasma triglycerides and LDL-C” value [4] was “decrease”.
